ChEMBL document CHEMBL1146011, “Diaryl substituted pyrrolidinones and pyrrolones as 5-HT2C inhibitors: synthesis and biological evaluation” (Bioorg Med Chem Lett, 2006)
Active and inactive are the calls of the source. The calls are words filed in the database; no cut-off is given here.

Columns and labels:
[1] = target: Beta-2 adrenergic receptor (Homo sapiens) (UniProt P07550); experiment: Binding affinity to human adrenergic beta-2 receptor
[2] = target: D(2) dopamine receptor (Homo sapiens) (UniProt P14416); experiment: Binding affinity to human dopamine D2 receptor
D(3) dopamine receptor = D(3) dopamine receptor (Homo sapiens, UniProt P35462); experiment: Binding affinity to human dopamine D3 receptor
[3] = target: T1, Adrenergic receptor alpha-1 (Homo sapiens, UniProt P35348+P25100+P35368); experiment: Binding affinity to human adrenergic alpha-1 receptor; assay type: protein assay
T1 sequence (P35348 whole entry): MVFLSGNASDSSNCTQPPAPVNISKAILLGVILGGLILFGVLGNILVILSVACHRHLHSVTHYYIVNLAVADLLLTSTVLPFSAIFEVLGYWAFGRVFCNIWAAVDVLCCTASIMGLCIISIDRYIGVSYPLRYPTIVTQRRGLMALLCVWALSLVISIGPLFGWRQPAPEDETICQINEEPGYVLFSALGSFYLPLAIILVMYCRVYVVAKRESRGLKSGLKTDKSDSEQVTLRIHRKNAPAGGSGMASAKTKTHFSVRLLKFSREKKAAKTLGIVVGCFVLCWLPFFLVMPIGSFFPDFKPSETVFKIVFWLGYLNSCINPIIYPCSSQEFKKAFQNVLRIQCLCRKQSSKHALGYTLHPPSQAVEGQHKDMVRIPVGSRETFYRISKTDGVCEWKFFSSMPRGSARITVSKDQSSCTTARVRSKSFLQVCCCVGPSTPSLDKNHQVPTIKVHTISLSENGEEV
T1 sequence (P25100 whole entry): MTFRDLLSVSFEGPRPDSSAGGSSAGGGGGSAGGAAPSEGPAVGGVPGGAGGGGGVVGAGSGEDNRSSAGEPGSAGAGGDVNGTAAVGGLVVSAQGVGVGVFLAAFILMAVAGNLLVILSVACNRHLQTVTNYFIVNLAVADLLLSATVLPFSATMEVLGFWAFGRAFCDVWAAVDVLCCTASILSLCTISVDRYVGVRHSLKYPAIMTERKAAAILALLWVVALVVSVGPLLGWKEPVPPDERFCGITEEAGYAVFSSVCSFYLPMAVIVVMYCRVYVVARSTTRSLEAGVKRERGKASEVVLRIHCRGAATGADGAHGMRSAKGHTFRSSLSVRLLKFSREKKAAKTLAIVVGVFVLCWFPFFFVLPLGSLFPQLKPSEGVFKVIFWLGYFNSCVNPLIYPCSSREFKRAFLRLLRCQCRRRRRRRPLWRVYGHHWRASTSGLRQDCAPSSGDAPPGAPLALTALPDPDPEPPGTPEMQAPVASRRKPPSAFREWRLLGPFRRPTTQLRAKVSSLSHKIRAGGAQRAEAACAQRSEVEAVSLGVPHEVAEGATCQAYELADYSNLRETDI
T1 sequence (P35368 whole entry): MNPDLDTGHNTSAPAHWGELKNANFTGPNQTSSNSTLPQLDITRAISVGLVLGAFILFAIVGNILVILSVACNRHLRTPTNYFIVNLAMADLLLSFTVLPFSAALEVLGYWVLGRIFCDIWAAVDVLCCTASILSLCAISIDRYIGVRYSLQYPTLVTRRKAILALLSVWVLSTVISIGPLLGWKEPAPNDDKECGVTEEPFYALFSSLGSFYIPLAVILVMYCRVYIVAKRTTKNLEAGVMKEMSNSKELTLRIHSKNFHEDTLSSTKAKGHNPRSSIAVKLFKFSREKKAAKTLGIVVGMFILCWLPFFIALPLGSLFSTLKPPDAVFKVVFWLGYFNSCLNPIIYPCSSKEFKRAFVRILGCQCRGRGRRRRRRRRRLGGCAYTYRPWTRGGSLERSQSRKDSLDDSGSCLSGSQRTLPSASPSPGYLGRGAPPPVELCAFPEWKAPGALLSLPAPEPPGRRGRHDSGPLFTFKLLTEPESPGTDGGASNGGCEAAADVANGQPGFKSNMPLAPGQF

[4] = Plasma clearance in orally dosed rat; assay type: ADME, organism-based; conditions: po
Rattus norvegicus [5] = experiment: Volume of distribution in orally dosed rat; assay type: ADME, organism-based; conditions: in vivo, po
[6] = Half life in orally dosed rat; assay type: ADME, organism-based; conditions: in vivo, po
[7] = Bioavailability in orally dosed rat; assay type: ADME, organism-based; conditions: in vivo, po
[8] = Ratio of drug level in brain against plasma in orally dosed rat; assay type: ADME, organism-based; conditions: po, read-out: BPR
Rattus norvegicus [9] = experiment: Drug level in orally dosed rat brain; assay type: ADME, organism-based; conditions: in vivo, po
[10] = target: 5-hydroxytryptamine receptor 7 (Homo sapiens, UniProt P34969); experiment: Binding affinity to human 5HT7 receptor
[11] = target: 5-hydroxytryptamine receptor 6 (Homo sapiens, UniProt P50406); experiment: Binding affinity to human 5HT6 receptor
[12] = target: T2, 5-hydroxytryptamine receptor 2C (Homo sapiens, UniProt P28335); experiment: Binding affinity to human 5HT2C receptor
T2 sequence (P28335 whole entry): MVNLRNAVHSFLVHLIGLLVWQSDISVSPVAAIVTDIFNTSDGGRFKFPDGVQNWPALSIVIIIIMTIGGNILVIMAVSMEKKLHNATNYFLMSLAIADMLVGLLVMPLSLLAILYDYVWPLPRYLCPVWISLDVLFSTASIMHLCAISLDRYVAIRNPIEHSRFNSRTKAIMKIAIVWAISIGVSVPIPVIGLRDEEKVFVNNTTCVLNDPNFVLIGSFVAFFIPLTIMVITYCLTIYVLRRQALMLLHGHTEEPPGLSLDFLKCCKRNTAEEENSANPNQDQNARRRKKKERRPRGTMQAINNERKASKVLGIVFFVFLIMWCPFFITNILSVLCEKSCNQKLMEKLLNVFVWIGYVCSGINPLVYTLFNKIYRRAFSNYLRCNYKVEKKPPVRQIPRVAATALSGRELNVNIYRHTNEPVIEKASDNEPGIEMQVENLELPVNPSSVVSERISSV

[13] = target: 5-hydroxytryptamine receptor 2A (Homo sapiens, UniProt P28223); experiment: Binding affinity to human 5HT2A receptor
[14] = target: 5-hydroxytryptamine receptor 2B (Homo sapiens, UniProt P41595); experiment: Binding affinity to human 5HT2B receptor
[15] = target: T3, 5-hydroxytryptamine receptor 1A (Homo sapiens, UniProt P08908); experiment: Binding affinity to human 5HT1A receptor
T3 sequence (P08908 whole entry): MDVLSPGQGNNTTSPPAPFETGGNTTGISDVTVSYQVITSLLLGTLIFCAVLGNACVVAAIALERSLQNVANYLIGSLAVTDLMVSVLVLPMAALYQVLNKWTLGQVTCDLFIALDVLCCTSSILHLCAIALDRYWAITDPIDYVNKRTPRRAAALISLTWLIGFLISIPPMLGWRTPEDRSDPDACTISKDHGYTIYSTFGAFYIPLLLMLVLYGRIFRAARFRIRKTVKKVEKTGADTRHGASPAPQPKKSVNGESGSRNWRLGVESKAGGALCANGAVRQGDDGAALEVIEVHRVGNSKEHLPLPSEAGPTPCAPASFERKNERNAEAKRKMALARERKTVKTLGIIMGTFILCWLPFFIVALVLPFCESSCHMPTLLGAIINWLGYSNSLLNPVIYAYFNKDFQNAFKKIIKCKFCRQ

[16] = target: 5-hydroxytryptamine receptor 1B (Homo sapiens, UniProt P28222); experiment: Binding affinity to human 5HT1B receptor
[17] = target: 5-hydroxytryptamine receptor 1D (Homo sapiens, UniProt P28221); experiment: Binding affinity to human 5HT1D receptor
5-hydroxytryptamine receptor 1D, sequence (P28221 whole entry): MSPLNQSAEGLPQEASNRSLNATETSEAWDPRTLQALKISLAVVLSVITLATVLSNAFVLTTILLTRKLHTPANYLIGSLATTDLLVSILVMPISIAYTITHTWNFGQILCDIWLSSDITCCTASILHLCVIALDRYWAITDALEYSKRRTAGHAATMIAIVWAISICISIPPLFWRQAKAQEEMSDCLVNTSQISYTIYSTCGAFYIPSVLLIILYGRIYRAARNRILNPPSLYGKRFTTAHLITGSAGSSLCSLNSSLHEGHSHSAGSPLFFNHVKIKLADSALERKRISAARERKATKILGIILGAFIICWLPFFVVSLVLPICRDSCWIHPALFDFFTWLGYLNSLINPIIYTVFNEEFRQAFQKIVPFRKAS

5-hydroxytryptamine receptor 2A, sequence (P28223 whole entry): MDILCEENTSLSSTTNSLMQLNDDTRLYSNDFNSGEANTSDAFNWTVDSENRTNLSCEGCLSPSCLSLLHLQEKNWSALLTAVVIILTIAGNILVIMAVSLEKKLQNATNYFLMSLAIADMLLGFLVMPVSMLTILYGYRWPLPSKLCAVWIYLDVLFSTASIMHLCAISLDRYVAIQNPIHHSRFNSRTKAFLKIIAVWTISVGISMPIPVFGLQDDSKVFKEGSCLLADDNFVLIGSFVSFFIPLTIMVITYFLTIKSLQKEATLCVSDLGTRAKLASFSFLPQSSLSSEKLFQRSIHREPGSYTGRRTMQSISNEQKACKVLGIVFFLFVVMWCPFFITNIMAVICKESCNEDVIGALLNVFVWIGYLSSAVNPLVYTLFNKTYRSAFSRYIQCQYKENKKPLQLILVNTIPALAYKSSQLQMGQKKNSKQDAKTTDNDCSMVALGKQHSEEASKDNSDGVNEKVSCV
5-hydroxytryptamine receptor 2B, sequence (P41595 whole entry): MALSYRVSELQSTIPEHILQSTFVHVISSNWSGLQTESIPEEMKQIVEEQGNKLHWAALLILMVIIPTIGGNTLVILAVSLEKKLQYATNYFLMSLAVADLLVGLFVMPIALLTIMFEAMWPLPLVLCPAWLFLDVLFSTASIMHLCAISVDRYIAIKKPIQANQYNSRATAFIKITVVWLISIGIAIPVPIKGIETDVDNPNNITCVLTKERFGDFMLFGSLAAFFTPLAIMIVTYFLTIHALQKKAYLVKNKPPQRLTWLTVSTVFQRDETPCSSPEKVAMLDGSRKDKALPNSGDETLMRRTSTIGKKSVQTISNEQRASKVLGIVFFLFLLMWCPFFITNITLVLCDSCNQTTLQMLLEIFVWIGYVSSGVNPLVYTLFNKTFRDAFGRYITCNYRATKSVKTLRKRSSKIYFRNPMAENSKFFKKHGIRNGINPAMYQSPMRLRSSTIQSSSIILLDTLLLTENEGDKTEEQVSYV
5-hydroxytryptamine receptor 1B, sequence (P28222 whole entry): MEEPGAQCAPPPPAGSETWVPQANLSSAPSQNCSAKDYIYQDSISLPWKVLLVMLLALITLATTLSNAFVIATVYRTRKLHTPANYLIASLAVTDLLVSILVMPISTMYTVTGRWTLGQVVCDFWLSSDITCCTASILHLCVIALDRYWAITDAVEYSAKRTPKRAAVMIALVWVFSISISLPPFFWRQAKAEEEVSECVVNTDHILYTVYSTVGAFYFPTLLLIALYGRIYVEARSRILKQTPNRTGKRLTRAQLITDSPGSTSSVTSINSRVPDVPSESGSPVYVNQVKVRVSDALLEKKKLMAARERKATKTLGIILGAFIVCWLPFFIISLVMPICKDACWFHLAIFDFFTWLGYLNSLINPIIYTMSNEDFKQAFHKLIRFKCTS
D(3) dopamine receptor, sequence (P35462 whole entry): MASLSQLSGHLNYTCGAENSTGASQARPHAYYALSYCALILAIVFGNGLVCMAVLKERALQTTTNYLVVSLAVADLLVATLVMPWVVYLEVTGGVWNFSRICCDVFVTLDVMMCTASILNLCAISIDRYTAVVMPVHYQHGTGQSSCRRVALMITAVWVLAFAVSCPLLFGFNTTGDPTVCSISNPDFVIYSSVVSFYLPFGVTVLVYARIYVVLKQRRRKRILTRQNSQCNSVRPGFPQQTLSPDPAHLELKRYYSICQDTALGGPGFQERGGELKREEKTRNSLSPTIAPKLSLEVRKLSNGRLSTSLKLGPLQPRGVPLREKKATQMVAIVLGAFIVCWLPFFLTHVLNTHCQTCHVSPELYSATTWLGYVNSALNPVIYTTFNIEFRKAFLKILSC
5-hydroxytryptamine receptor 7, sequence (P34969 whole entry): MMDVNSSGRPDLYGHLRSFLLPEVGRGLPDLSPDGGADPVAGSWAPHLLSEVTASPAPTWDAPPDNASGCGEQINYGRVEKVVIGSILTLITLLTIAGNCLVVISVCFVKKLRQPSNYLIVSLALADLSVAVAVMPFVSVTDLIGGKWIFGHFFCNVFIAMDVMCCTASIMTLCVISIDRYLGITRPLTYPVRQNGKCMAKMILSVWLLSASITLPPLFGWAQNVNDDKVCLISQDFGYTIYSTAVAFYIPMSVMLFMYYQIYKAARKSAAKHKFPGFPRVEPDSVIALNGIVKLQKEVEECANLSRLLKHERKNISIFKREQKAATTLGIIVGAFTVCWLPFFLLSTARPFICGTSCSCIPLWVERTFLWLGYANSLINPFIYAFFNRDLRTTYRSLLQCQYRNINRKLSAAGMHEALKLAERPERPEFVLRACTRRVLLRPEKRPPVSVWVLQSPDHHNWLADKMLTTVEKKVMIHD
5-hydroxytryptamine receptor 6, sequence (P50406 whole entry): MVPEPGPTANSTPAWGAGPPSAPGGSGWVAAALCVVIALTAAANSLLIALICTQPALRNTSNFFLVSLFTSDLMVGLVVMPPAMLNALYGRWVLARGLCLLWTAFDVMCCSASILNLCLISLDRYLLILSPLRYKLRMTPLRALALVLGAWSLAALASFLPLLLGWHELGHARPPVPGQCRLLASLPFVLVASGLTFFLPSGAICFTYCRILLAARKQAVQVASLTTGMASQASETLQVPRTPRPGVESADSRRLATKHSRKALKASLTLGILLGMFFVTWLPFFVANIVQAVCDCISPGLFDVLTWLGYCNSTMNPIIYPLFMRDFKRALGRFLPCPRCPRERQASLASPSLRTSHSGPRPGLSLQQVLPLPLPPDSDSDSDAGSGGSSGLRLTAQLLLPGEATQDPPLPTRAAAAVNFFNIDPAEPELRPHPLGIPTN
Beta-2 adrenergic receptor (Homo sapiens), sequence (P07550 whole entry, looked up): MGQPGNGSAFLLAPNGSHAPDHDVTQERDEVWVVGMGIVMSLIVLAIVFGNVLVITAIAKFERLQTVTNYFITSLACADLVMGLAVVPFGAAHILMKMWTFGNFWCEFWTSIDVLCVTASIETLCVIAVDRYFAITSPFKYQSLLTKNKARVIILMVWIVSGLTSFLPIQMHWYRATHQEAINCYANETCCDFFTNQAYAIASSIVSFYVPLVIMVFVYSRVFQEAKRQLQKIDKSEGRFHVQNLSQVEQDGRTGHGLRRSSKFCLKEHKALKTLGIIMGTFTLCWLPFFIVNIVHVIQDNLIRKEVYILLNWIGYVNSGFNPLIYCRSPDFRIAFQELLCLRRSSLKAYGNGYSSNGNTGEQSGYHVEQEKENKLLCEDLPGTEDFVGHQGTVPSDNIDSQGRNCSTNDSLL
D(2) dopamine receptor (Homo sapiens), sequence (P14416 whole entry): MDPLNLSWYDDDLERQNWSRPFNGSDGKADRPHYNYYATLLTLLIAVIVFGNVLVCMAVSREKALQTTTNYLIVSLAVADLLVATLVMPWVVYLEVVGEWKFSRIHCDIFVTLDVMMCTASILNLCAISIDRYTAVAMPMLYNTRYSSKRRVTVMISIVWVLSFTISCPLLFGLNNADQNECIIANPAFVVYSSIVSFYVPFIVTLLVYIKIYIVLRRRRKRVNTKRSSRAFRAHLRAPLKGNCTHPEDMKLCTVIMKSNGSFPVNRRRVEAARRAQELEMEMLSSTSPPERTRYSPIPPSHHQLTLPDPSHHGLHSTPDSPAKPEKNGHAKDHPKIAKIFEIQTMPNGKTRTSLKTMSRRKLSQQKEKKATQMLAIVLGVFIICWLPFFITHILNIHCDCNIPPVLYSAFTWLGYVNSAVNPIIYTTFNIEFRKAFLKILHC

Which Activity [1] does the source give for `COc1ccc(N2CC=C(c3ccc(Cl)c(Cl)c3)C2=O)cc1OCCN1CCCCC1` here?
Its Activity is “inactive”.

What about the Activity [2] of the same compound?
The Activity was “inactive”.

What about the Ki (D(3) dopamine receptor) of the same compound?
The Ki was 457 nM.

What about the “Log Ki” value [3] of the same compound?
Its value is -5.74.

What about the CL/F [4] of the same compound?
Its CL/F is 59 mL/min/kg.

And the Vdss (Rattus norvegicus [5])?
The Vdss was 10.7 L.

What about the half-life [6] of the same compound?
Its half-life is 2.8 h.

What about the bioavailability [7] of the same compound?
The bioavailability was 11%.

What about the Kp [8] of the same compound?
Its Kp is 3.9.

What about the Drug uptake (Rattus norvegicus [9]) of the same compound?
The Drug uptake was 320 ng/g.

What about the Ki [10] of the same compound?
Its Ki is > 3160 nM.

And the Ki [11]?
Its Ki is > 3160 nM.

What about the Ki [12] of the same compound?
Its Ki is 0.794 nM.

What about the Ki [13] of the same compound?
Its Ki is 631 nM.

And the Ki [14]?
Its Ki is 631 nM.

What about the Ki [15] of the same compound?
Its Ki is > 3160 nM.

And the Ki [16]?
The Ki was > 3160 nM.

And the Ki [17]?
Its Ki is > 3160 nM.
